Read-outs that look alike come from different tables or passages of the source.
Key:
[1] = system: Per2 beta-lactamase (class A); assay: Screening of beta-lactamases by competition, nitrocefin as reporter substrate; type: biochemical
[2] = system: Imp4 beta-lactamase (class B); assay: as above; type: biochemical
[3] = system: AmpCHD beta-lactamase (class C); assay: as above; type: biochemical
[4] = target: P99 beta-lactamase (class C) (Enterobacter cloacae, UniProt P05364); type: biochemical; settings: nitrocefin reporter
Sequence of P99 beta-lactamase (class C) (P05364 21-381): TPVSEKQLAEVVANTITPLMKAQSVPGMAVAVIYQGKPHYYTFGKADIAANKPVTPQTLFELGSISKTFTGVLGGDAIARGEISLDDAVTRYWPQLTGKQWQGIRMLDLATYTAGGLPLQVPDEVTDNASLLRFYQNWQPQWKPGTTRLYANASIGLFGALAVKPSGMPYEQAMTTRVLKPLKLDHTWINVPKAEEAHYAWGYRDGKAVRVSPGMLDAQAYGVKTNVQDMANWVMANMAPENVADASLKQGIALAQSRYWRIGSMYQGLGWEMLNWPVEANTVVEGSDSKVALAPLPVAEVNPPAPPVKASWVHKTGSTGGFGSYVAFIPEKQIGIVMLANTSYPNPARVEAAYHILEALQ

[5] = target: Ndm1 beta-lactamase (class B) (Klebsiella pneumoniae, UniProt C7C422); type: biochemical; settings: nitrocefin reporter
Sequence of Ndm1 beta-lactamase (class B) (C7C422 29-270 limits assumed): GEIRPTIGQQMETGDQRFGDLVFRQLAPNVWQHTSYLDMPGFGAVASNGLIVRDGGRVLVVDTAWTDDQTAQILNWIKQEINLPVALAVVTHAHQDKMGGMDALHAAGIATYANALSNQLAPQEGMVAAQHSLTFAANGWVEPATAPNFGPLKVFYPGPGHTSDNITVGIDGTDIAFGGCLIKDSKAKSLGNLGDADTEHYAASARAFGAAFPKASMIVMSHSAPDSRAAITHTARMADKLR

[6] = target: Imp1 beta-lactamase (class B) (Serratia marcescens, UniProt P52699); type: biochemical; settings: nitrocefin reporter
Sequence of Imp1 beta-lactamase (class B) (P52699 19-246 limits assumed): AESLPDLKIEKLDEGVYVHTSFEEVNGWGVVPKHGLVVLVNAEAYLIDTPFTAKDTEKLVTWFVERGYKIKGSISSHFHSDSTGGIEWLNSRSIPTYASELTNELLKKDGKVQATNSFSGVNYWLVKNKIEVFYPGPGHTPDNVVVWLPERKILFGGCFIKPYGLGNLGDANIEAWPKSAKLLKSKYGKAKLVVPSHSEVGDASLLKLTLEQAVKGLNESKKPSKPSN

[7] = target: T1, beta-lactamase class D OXA-48 (Klebsiella pneumoniae, UniProt Q6XEC0); type: biochemical; settings: for Accuracy <> (average) / [Meropenem] <> (average): average of 5 replicates
T1 sequence (Q6XEC0 23-265 limits assumed): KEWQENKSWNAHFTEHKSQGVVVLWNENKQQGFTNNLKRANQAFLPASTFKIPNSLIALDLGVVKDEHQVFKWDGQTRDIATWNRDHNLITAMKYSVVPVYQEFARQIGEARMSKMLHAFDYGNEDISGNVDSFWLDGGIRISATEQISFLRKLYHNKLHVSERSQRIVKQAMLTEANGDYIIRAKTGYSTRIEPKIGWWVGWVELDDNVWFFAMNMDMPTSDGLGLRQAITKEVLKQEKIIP
From the text: The specificity (or selectivity) of the method according to an embodiment of the invention is defined as the ability of the method to measure the concentration of a carbapenem antibiotic (such as meropenem) in presence of an excess of another beta-lactam antibiotic (second beta-lactam) currently used in ICUs (see Table 4).
To determine the specificity of the method illustrating the invention for carbapenem antibiotics, in particular meropenem, versus other beta-lactam antibiotics, stock-solutions of second beta-lactam antibiotics were prepared in water.
An excess of a second beta-lactam concentration of up to 10 times the concentration of meropenem was used.

[8] = target: Kpc2 beta-lactamase (class A) (Klebsiella pneumoniae, UniProt Q9F663); type: biochemical; settings: nitrocefin reporter
Sequence of Kpc2 beta-lactamase (class A) (Q9F663 25-293 limits assumed): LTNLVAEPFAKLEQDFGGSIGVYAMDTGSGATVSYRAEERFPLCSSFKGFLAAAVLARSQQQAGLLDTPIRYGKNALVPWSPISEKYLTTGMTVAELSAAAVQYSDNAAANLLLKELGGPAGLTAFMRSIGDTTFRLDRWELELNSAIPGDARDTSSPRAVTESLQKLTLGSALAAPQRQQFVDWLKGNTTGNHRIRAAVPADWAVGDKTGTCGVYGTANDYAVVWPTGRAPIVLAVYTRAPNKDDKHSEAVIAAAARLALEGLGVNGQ

[9] = target: CTXM15 beta-lactamase (class A) (Escherichia coli, UniProt Q9EXV5); type: biochemical; settings: nitrocefin reporter
Sequence of CTXM15 beta-lactamase (class A) (Q9EXV5 29-291 limits assumed): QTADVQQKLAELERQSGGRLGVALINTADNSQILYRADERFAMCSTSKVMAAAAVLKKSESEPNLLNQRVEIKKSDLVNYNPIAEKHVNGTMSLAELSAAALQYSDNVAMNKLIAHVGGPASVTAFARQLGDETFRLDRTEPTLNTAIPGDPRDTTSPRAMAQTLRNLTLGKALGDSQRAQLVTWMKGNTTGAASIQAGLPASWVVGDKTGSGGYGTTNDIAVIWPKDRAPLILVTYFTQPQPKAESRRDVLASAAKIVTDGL

[10] = target: T1, beta-lactamase class D OXA-48; type: biochemical; settings: OXA-48, nitrocefin, 482 nm
OXA-163 = settings: OXA-163, for meropenem; cited from earlier work
OXA-48 = OXA-48 (Klebsiella pneumoniae, UniProt Q6XEC0); settings: OXA-48, for meropenem; cited from earlier work
Sequence of OXA-48 (Q6XEC0 23-265 limits assumed): as the sequence (Q6XEC0 23-265 limits assumed) above

[11] = target: BlaP beta-lactamase (class A) (Bacillus licheniformis, UniProt P00808); type: biochemical; settings: nitrocefin reporter
Sequence of BlaP beta-lactamase (class A) (P00808 27-307 limits assumed): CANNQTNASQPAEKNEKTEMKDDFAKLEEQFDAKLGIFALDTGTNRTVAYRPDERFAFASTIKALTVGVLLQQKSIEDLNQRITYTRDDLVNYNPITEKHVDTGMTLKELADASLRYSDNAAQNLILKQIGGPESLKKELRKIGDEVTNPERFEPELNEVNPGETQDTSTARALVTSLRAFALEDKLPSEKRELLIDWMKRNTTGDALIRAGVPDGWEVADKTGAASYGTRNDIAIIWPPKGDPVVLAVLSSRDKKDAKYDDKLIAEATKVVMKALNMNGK

[12] = target: Oxa48 beta-lactamase (class D) (Klebsiella pneumoniae, UniProt Q6XEC0); type: biochemical; settings: nitrocefin reporter
Sequence of Oxa48 beta-lactamase (class D) (Q6XEC0 23-265 limits assumed): as the sequence (Q6XEC0 23-265 limits assumed) above

[13] = Meropenem 1.2 mg/L, second β-lactam 10.0 mg/L (8.4 times excess)
[14] = Meropenem 20.0 mg/L, second β-lactam 200.0 mg/L (10 times excess)

| Compound | hydrolysis rate symbol, (Vmax/V0)-1 [2] | hydrolysis rate symbol, (Vmax/V0)-1 [3] | hydrolysis rate symbol, (Vmax/V0)-1 [4] | hydrolysis rate symbol, (Vmax/V0)-1 [6] | Accuracy <> (average) [7, 13] | [Meropenem] <> (average) [7, 13] | Accuracy Replicate 1 [7, 13] | [Meropenem] Replicate 1 [7, 13] | Accuracy Replicate 2 [7, 13] | [Meropenem] Replicate 2 [7, 13] | Accuracy Replicate 3 [7, 13] | [Meropenem] Replicate 3 [7, 13] | Accuracy Replicate 4 [7, 13] | [Meropenem] Replicate 4 [7, 13] | Accuracy Replicate 5 [7, 13] | [Meropenem] Replicate 5 [7, 13] | Accuracy <> (average) [7, 14] | [Meropenem] <> (average) [7, 14] | Accuracy Replicate 1 [7, 14] | [Meropenem] Replicate 1 [7, 14] | other results |
| --- | --- | --- | --- | --- | --- | --- | --- | --- | --- | --- | --- | --- | --- | --- | --- | --- | --- | --- | --- | --- | --- |
| Cn1nnnc1SCC1=C(C(=O)O)N2C(=O)[C@@H](NC(=O)[C@H](O)c3ccccc3)[C@H]2SC1 [Cefamandole ®, Cefamandole] | ++ (1-10) | ++ (1-10) | ++ (1-10) | ++ (1-10) | 115% | 1.3 mg/L | 112% | 1.3 mg/L | 116% | 1.3 mg/L | 114% | 1.3 mg/L | 123% | 1.4 mg/L | 112% | 1.3 mg/L | 99% | 22.0 mg/L | 97% | 21.5 mg/L | hydrolysis rate symbol, (Vmax/V0)-1 [1]: + (0.1-1); hydrolysis rate symbol, (Vmax/V0)-1 [5]: + (0.1-1); Accuracy Replicate 2 [7, 14]: 98%; [Meropenem] Replicate 2 [7, 14]: 21.9 mg/L; Accuracy Replicate 3 [7, 14]: 99%; [Meropenem] Replicate 3 [7, 14]: 22.2 mg/L; Accuracy Replicate 4 [7, 14]: 105%; [Meropenem] Replicate 4 [7, 14]: 23.4 mg/L; Accuracy Replicate 5 [7, 14]: 94%; [Meropenem] Replicate 5 [7, 14]: 21.0 mg/L |
| C[C@@H](O)[C@H]1C(=O)N2C(C(=O)O)=C(S[C@@H]3CN[C@H](C(=O)N(C)C)C3)[C@H](C)[C@H]12 [Meropenem, meropenem] | + (0.1-1) | + (0.1-1) | +++ (10-100) | + (0.1-1) | 100% | 1.2 mg/L | 98% | 1.1 mg/L | 100% | 1.2 mg/L | 97% | 1.1 mg/L | 108% | 1.3 mg/L | 97% | 1.1 mg/L | 100% | 20.2 mg/L | 103% | 20.7 mg/L | hydrolysis rate symbol, (Vmax/V0)-1 [8]: + (0.1-1); hydrolysis rate symbol, (Vmax/V0)-1 [9]: +++ (10-100); lower limit of quantification (LLOQ) [10]: 0.5 mg/L; upper limit of quantification (ULOQ) [10]: 20 mg/L; Km (OXA-163): 2200 µM; Km (OXA-48): 200 µM; hydrolysis rate symbol, (Vmax/V0)-1 [11]: + (0.1-1); hydrolysis rate symbol, (Vmax/V0)-1 [12]: +++ (10-100); Accuracy Replicate 2 [7, 14]: 104%; [Meropenem] Replicate 2 [7, 14]: 20.9 mg/L; Accuracy Replicate 3 [7, 14]: 98%; [Meropenem] Replicate 3 [7, 14]: 19.8 mg/L; Accuracy Replicate 4 [7, 14]: 98%; [Meropenem] Replicate 4 [7, 14]: 19.9 mg/L; Accuracy Replicate 5 [7, 14]: 97%; [Meropenem] Replicate 5 [7, 14]: 19.6 mg/L |

Source: US20220317138A1, “METHODS FOR DETERMINING THE CONCENTRATION OF A CARBAPENEM ANTIBIOTIC IN A BIOLOGICAL SAMPLE” (priority 2019, published 2022)
